{"source": "paper PMC8042770", "about": "“Odorant Receptors for Detecting Flowering Plant Cues Are Functionally Conserved across Moths and Butterflies” (Molecular Biology and Evolution, 2020)", "key": {"[1]": {"test_system": "HarmOR repertoire", "experiment": "Responses of the 28 functional HarmORs across odorant doses (PCA of oocyte currents)", "type": "cell-based, Helicoverpa armigera", "conditions": "odorant 10^−7 M", "from_the_text": "Vectors quantifying the responses of the 28 ORs to each odorant were projected onto a 3D landscape. This 3D representation captured 78.34% (10^−4 M), 65.11% (10^−5 M), 68.89% (10^−6 M), and 84.52% (10^−7 M) of the variation in the original 28D data set across different odorant concentrations. […] In addition, the capacity of the H. armigera odor space was highly dependent on odorant concentration. As the concentrations of odorants decreased, their positions in the odor space converged, with the ability to discriminate different odorants diminishing.\n(§1) Functional characterization of individual ORs was performed by heterologous expression in Xenopus oocytes combined with a two-electrode voltage-clamp system ([Wang et al. 2010]). Briefly, the full-length gene of each OR and Orco were subcloned into the eukaryotic expression vector pT7TS. cRNAs were generated from linearized expression vectors using the mMESSAGE mMACHINE T7 kit (Ambion, Austin, TX). Then, the cRNA mixture of ORx and Orco (27.6 ng each) was injected (Nanoliter 2010, WPI Inc., Sarasota, FL) into oocytes (stage V–VII). The respective Orcos of different species were used for functional studies of OR42 orthologs except for the four butterfly species (V. tameamea, P. xuthus, D. plexippus, and P. rapae), in which we used the Orco from P. xuthus. After incubation in nutrient solution at 18 °C for 3–5 days, the response profile of each oocyte to multiple plant odorants was recorded via a two-electrode voltage clamp (OC-725C oocyte clamp, Warner Instruments, Hamden, CT) at a holding potential of −80 mV. Data were acquired by using a Digidata 1440 A and were analyzed by pCLAMP 10.2 software (Axon Instruments Inc., Union City, CA).\n(§2) Stock solutions of each odorant were prepared at 1 M using DMSO as a solvent, and each odorant was diluted in 1× Ringer’s solution to the indicated concentrations for electrophysiological recording. For functional screening of each HarmOR, a panel of 67 odorants belonging to three types of chemical classes: terpenes, aromatics, and aliphatics (short-chain fatty acid) were used (supplementary table S1, Supplementary Material online). For functional studies of OR42 orthologs from different species, six odorants including PAA, benzaldehyde, (E)-2-hexen-1-al, cinnamaldehyde, 2-phenylethanol, and heptanal were used.\nGraphs and data statistics of OR response spectra, dose responses, EAG, and behavioral experiments were generated by Prism 7 (GraphPad Software, La Jolla, CA). A heat map was generated in Excel 2010 (Microsoft Corporation, WA). […] For tuning breadth analysis, the kurtosis values (K) were calculated by SPSS 22 (SPSS Inc., Chicago, IL) and were used to define the tuning spectra width, where smaller K values represent broader tuning spectra (fig. 1B). […]"}, "[2]": {"biological_target": "HarmOR55 (Helicoverpa armigera, UniProt A0A7T3N2G6)", "sequence (A0A7T3N2G6 entry or part of it)": "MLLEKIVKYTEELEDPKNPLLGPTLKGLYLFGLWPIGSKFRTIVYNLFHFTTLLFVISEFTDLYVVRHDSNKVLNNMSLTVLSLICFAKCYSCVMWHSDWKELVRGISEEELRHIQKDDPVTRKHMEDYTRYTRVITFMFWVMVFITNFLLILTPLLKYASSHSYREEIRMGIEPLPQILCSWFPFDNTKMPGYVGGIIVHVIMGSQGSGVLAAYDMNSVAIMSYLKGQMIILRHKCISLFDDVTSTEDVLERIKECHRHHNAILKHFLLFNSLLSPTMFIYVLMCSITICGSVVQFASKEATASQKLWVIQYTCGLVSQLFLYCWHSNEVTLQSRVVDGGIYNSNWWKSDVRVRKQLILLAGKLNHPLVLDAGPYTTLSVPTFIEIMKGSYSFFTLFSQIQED", "experiment": "Xenopus oocyte two-electrode voltage clamp, HarmOR55 + Orco", "type": "cell-based", "conditions": "dose response in oocytes, unit M", "protocol": "(§3) In order to expand our analysis on the response properties of HarmORs, we conducted dose–response analyses for the 28 functional HarmORs. […] Six HarmORs (OR3, 22, 48, 50, 56, and 66) could not be activated by any ligand at 10^−5 M. For the other 22 HarmORs, dose–response curves were generated and EC50 values of their major ligands were calculated (fig. 2A and supplementary table S2, Supplementary Material online). The HarmOR repertoire was highly efficient in terpene detection, since the lowest EC50 values were obtained for such compounds. Many of these terpenes have been proposed to be defensive chemicals of plants. […] DMNT is also one of the oviposition deterring compounds found in larval frass of some Lepidoptera species such as S. littoralis ([Anderson et al. 1993]).\n(§4) Functional characterization of individual ORs was performed by heterologous expression in Xenopus oocytes combined with a two-electrode voltage-clamp system ([Wang et al. 2010]). […] After incubation in nutrient solution at 18 °C for 3–5 days, the response profile of each oocyte to multiple plant odorants was recorded via a two-electrode voltage clamp (OC-725C oocyte clamp, Warner Instruments, Hamden, CT) at a holding potential of −80 mV. Data were acquired by using a Digidata 1440 A and were analyzed by pCLAMP 10.2 software (Axon Instruments Inc., Union City, CA). […]"}, "[3]": {"biological_target": "T1, HarmOR40 (Helicoverpa armigera, UniProt A0A7T3KBF4)", "T1 sequence (A0A7T3KBF4 1-401)": "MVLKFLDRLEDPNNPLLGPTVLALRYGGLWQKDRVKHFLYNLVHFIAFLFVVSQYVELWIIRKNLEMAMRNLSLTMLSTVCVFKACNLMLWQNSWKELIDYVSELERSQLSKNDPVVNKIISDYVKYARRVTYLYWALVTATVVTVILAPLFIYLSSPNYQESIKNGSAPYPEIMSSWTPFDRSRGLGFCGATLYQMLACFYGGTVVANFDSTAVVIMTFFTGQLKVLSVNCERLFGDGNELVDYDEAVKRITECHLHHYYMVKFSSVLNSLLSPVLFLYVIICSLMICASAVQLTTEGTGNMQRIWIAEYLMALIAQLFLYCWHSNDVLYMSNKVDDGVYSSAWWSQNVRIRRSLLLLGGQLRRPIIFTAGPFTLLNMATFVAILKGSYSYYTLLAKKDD", "experiment": "Xenopus oocyte two-electrode voltage clamp, HarmOR40 + Orco", "type": "cell-based", "conditions": "HarmOR40; dose response in oocytes; unit M printed in text only; read-out: EC50", "protocol": "as §3, §1, §2"}, "[4]": {"biological_target": "HarmOR26 (Helicoverpa armigera, UniProt A0A075T633)", "sequence (A0A075T633 1-408)": "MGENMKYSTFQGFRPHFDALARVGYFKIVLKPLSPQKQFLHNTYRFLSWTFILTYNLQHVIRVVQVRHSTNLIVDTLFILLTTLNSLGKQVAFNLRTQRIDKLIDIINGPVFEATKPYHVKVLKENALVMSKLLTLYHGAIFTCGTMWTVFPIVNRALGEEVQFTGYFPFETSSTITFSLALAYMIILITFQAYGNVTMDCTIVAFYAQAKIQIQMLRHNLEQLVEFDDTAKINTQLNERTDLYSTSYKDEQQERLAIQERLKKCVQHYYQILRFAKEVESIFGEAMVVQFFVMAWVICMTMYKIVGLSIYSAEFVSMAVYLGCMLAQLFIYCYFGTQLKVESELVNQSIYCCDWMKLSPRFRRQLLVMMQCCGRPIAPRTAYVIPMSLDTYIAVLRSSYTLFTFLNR", "experiment": "Xenopus oocyte two-electrode voltage clamp, HarmOR26 + Orco", "type": "cell-based", "conditions": "dose response in oocytes, unit M printed in b12 only", "protocol": "as §3, §4"}, "[5]": {"biological_target": "HarmOR31 (Helicoverpa armigera, UniProt A0A7T3N2E9)", "sequence (A0A7T3N2E9 entry or part of it)": "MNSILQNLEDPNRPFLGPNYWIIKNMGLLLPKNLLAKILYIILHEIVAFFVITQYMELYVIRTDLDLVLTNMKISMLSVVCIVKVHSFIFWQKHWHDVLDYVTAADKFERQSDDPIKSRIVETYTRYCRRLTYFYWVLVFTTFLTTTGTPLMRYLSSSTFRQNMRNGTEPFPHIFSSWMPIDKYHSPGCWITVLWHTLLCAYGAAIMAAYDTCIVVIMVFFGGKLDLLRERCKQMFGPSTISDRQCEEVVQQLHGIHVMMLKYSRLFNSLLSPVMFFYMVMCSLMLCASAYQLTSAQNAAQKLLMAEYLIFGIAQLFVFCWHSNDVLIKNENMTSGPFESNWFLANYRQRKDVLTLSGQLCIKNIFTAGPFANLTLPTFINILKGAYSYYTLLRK", "experiment": "Xenopus oocyte two-electrode voltage clamp, HarmOR31 + Orco", "type": "cell-based", "from_the_text": "In order to expand our analysis on the response properties of HarmORs, we conducted dose–response analyses for the 28 functional HarmORs. […] Many of these terpenes have been proposed to be defensive chemicals of plants.\nBriefly, the full-length gene of each OR and Orco were subcloned into the eukaryotic expression vector pT7TS. cRNAs were generated from linearized expression vectors using the mMESSAGE mMACHINE T7 kit (Ambion, Austin, TX). […] The respective Orcos of different species were used for functional studies of OR42 orthologs except for the four butterfly species (V. tameamea, P. xuthus, D. plexippus, and P. rapae), in which we used the Orco from P. xuthus.\nas §2"}, "[6]": {"biological_target": "HarmOR7 (Helicoverpa armigera, UniProt A0A7T3KAD7)", "sequence (A0A7T3KAD7 1-411)": "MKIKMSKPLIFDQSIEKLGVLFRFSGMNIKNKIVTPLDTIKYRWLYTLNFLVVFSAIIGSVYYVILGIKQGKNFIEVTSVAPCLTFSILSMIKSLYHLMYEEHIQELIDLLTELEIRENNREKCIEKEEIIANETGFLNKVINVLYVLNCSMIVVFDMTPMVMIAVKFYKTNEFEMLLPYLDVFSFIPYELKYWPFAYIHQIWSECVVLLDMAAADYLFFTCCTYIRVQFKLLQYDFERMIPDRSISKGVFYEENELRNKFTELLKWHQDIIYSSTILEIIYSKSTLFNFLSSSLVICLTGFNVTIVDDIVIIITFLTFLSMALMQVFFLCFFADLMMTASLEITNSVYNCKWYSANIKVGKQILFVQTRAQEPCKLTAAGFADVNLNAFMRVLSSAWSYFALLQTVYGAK", "experiment": "Xenopus oocyte two-electrode voltage clamp, HarmOR7 + Orco", "type": "cell-based", "protocol": "as §3, §4"}, "[7]": {"biological_target": "HarmOR63 (Helicoverpa armigera, UniProt A0A7T3N0P9)", "sequence (A0A7T3N0P9 1-407)": "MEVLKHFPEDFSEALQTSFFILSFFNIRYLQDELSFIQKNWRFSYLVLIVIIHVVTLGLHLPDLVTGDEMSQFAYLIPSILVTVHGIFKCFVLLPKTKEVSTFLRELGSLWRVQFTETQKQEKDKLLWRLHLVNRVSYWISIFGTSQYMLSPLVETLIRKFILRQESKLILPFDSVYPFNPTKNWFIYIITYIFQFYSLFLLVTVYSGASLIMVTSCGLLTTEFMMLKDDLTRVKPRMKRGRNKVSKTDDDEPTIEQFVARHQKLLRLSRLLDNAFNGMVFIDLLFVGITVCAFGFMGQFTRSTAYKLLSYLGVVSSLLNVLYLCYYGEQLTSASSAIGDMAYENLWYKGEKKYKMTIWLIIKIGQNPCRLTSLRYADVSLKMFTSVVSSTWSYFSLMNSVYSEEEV", "experiment": "Xenopus oocyte two-electrode voltage clamp, HarmOR63 + Orco", "type": "cell-based", "conditions": "dose response in oocytes, unit M", "protocol": "as §3, §4"}, "[8]": {"biological_target": "T2, HarmOR60 (Helicoverpa armigera, UniProt A0A7T3N1B9)", "T2 sequence (A0A7T3N1B9 1-391)": "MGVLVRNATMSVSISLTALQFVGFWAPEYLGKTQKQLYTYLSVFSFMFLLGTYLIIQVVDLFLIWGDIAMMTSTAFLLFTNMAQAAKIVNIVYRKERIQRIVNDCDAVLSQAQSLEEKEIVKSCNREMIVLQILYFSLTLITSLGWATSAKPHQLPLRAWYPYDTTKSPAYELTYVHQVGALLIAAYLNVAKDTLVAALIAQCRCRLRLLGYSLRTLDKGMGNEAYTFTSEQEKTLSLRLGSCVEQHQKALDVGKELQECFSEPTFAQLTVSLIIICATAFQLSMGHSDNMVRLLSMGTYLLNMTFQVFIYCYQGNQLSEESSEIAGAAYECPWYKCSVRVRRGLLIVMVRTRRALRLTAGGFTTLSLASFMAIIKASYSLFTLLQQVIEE", "experiment": "Xenopus oocyte two-electrode voltage clamp, HarmOR60 + Orco", "type": "cell-based", "protocol": "as §3\nas §1, with “CA). […]” for “CA).”"}, "[9]": {"biological_target": "HarmOR35 (Helicoverpa armigera, UniProt A0A7T3N1A8)", "sequence (A0A7T3N1A8 entry or part of it)": "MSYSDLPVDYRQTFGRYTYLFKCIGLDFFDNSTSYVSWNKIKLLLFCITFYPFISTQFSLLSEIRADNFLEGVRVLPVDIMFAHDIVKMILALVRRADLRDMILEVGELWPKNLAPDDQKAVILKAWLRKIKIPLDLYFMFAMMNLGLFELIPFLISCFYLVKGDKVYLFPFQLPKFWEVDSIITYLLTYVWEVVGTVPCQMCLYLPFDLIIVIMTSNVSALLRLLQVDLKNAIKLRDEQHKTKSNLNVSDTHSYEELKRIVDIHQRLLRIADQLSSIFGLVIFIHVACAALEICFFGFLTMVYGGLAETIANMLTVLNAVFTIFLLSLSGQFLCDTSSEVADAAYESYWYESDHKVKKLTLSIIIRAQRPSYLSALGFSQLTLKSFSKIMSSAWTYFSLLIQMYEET", "experiment": "Xenopus oocyte two-electrode voltage clamp, HarmOR35 + Orco", "type": "cell-based", "protocol": "as §3, §4"}, "[10]": {"biological_target": "HarmOR25 (Helicoverpa armigera, UniProt A0A7T3KAG7)", "sequence (A0A7T3KAG7 1-398)": "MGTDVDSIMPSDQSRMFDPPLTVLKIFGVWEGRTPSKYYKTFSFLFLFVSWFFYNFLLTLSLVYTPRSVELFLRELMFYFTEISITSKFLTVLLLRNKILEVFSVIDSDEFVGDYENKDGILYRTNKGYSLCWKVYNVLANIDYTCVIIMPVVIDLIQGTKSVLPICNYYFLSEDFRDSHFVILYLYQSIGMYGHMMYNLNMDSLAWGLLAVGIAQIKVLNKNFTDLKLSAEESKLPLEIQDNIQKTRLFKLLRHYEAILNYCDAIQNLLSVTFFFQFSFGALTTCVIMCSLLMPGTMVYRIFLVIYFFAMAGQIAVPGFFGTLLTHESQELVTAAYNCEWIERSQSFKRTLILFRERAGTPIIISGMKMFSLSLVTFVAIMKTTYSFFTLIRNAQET", "experiment": "Xenopus oocyte two-electrode voltage clamp, HarmOR25 + Orco", "type": "cell-based", "protocol": "as §3, §4"}, "[11]": {"biological_target": "HarmOR29 (Helicoverpa armigera, UniProt A0A7T3KAG0)", "sequence (A0A7T3KAG0 1-395)": "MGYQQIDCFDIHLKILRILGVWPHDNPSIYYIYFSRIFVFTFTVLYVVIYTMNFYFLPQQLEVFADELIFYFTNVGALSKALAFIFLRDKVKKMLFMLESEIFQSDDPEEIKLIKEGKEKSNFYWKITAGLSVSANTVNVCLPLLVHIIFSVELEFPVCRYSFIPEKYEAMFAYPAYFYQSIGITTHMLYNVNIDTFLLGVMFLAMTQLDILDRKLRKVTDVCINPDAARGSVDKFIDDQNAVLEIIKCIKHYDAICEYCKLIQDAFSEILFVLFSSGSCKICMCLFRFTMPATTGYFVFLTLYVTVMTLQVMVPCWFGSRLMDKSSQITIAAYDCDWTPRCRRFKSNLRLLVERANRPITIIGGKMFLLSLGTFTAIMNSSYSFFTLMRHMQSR", "experiment": "Xenopus oocyte two-electrode voltage clamp, HarmOR29 + Orco", "type": "cell-based", "conditions": "dose response in oocytes, unit M", "protocol": "as §3, §4"}, "[12]": {"biological_target": "HarmOR8 (Helicoverpa armigera, UniProt A0A7T3N2E2)", "sequence (A0A7T3N2E2 1-406)": "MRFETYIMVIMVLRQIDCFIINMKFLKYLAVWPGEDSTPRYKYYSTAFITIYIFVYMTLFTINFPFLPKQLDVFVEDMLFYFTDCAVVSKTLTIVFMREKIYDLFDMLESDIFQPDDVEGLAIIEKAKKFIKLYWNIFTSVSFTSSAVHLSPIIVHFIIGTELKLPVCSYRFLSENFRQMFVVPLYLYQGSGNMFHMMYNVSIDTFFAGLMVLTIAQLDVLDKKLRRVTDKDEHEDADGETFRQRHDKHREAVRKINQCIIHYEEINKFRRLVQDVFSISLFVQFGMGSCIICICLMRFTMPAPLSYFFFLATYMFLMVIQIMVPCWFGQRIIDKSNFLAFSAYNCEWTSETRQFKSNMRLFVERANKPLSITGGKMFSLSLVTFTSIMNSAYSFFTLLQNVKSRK", "experiment": "Xenopus oocyte two-electrode voltage clamp, HarmOR8 + Orco", "type": "cell-based", "conditions": "dose response in oocytes, unit M", "protocol": "as §3, §4"}}, "note": "Like-named read-outs stand apart in the source and are kept apart here."}
{"compound": "C=CC(C)(O)CC/C=C(\\C)CCC=C(C)C", "note": "(stereo not shown) [(E)-Nerolidol]", "values": [{"measurement": "response of the HarmOR repertoire", "setting": "[1]", "result": "still responded"}, {"measurement": "EC50", "setting": "[2]", "result": 88.1, "unit": "µM"}, {"measurement": "EC50", "setting": "[3]", "result": 12.5, "unit": "µM"}, {"measurement": "EC50", "setting": "[4]", "result": 0.0289, "unit": "µM"}]}
{"compound": "COC(=O)Cc1ccccc1", "note": "[Methyl phenylacetate]", "values": [{"measurement": "EC50", "setting": "[5]", "result": 29.5, "unit": "µM"}, {"measurement": "EC50", "setting": "[6]", "result": 107, "unit": "µM"}]}
{"compound": "C=C1CC/C=C(\\C)CC[C@@H]2[C@@H]1CC2(C)C", "note": "[(-)-trans-Caryophyllene]", "values": [{"measurement": "EC50", "setting": "[7]", "result": 88.2, "unit": "µM"}]}
{"compound": "CC(=O)OCc1ccccc1", "note": "[Benzyl acetate]", "values": [{"measurement": "EC50", "setting": "[6]; HarmOR7, dose response in oocytes, unit M, read-out: EC50", "result": 60.7, "unit": "µM"}]}
{"compound": "C=CCc1ccc(O)c(OC)c1", "note": "[Eugenol]", "values": [{"measurement": "EC50", "setting": "[8]; HarmOR60, dose response in oocytes, unit M", "result": 1.72, "unit": "µM"}, {"measurement": "main ligand of HarmOR60", "setting": "[8]; clade B", "result": "main ligand"}, {"measurement": "EC50", "setting": "[9]", "result": 42.5, "unit": "µM"}, {"measurement": "EC50", "setting": "[10]; HarmOR25, dose response in oocytes, unit M", "result": 81.6, "unit": "µM"}, {"measurement": "main ligand of HarmOR25", "setting": "[10]; clade E", "result": "main ligand"}, {"measurement": "EC50", "setting": "[11]", "result": 18.9, "unit": "µM"}]}
{"compound": "C=C1CC[C@H]2O[C@]2(C)CC[C@@H]2[C@@H]1CC2(C)C", "note": "[(-)-Caryophyllene oxide]", "values": [{"measurement": "EC50", "setting": "[7]", "result": 52.1, "unit": "µM"}]}
{"compound": "C=CCc1ccc(OC)c(OC)c1", "note": "[Methyl eugenol]", "values": [{"measurement": "EC50", "setting": "[12]", "result": 106, "unit": "µM"}]}
